Source: PMC6836411, “Identification and characterization of the Cucurbitacins, a novel class of small-molecule inhibitors of Tropomyosin receptor kinase a” (BMC Complementary and Alternative Medicine, 2019)

Key:
Type in all cases: biochemical
[1] = target: T1, Tropomyosin receptor kinase A (TrkA) (Homo sapiens, UniProt P04629); experiment: radiometric [γ-33P]ATP kinase assay, poly(Glu,Tyr) substrate, dose-response
T1 construct: gene NTRK1

Aurora B = target: T2, Aurora B (Homo sapiens, UniProt Q96GD4); experiment: radiometric kinase panel, single dose […], duplicate; details: read-out: % remaining activity at 500 nM
T2 construct: gene AURKB

CAMK1 = CAMK1 (Homo sapiens, UniProt Q14012); experiment: as above; details: read-out: % remaining activity at 500 nM
Chain of CAMK1 (Q14012 whole entry): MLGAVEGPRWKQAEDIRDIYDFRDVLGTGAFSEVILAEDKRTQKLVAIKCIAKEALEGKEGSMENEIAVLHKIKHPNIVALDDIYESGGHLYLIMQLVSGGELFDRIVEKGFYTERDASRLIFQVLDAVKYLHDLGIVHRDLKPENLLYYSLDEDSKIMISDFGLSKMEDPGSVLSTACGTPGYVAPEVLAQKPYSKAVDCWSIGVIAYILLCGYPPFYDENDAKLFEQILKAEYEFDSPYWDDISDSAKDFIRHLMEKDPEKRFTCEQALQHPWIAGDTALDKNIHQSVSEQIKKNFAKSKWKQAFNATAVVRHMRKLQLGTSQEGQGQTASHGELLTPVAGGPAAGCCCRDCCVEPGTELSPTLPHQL

T1 sequence (P04629 441-796 limits assumed): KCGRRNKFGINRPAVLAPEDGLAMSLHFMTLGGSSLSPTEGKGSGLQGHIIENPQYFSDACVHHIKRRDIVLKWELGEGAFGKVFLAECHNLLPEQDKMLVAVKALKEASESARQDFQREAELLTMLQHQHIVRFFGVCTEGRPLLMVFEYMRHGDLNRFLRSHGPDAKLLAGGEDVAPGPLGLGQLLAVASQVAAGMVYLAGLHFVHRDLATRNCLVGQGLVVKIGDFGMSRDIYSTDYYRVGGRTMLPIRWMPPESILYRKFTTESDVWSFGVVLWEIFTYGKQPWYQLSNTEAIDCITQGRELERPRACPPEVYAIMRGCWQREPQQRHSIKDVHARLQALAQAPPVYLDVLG
T2 sequence (Q96GD4 whole entry): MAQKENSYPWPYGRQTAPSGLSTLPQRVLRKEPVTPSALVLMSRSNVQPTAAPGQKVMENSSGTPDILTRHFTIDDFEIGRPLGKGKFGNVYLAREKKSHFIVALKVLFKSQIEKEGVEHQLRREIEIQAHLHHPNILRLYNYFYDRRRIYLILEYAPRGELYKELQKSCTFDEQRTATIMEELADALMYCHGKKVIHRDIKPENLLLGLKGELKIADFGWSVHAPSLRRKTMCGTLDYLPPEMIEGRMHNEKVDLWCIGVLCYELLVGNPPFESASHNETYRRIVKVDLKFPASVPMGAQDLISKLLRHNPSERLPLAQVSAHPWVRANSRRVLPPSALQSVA

Structure (SMILES): CC(=O)OC(C)(C)/C=C/C(=O)[C@](C)(O)[C@H]1[C@H](O)C[C@@]2(C)[C@@H]3CC=C4[C@@H](C[C@H](O)C(=O)C4(C)C)[C@]3(C)C(=O)C[C@]12C [CuB, Cucurbitacin B]
- IC50 [1]: 178 nM
- remaining activity at 0.5 µM (Aurora B): 23.2 ± 2.8%
- remaining activity at 0.5 µM (CAMK1): 12.9 ± 3.7%

Structure (SMILES): CC(=O)OC(C)(C)/C=C/C(=O)[C@](C)(O)[C@H]1[C@H](O)C[C@@]2(C)[C@@H]3CC=C4[C@@H](C=C(O)C(=O)C4(C)C)[C@]3(C)C(=O)C[C@]12C [CuE, Cucurbitacin E]
- IC50 [1]: 549 nM

Structure (SMILES): CC(C)(O)/C=C/C(=O)[C@](C)(O)[C@H]1[C@H](O)C[C@@]2(C)[C@@H]3CC=C4[C@@H](C=C(O)C(=O)C4(C)C)[C@]3(C)C(=O)C[C@]12C [CuI, Cucurbitacin I]
- IC50 [1]: 959 nM
